According to US12551482B2, “Aurora kinase inhibitors” (The Regents of the University of California, priority 2013, dated 2026):
Entries after “also recorded” stand apart in the source; their conditions may differ.

Assays:
[1] = tested on: MYCN; assay: MYCN protein by western blot in SK-N-BE(2) cells; format: cell-based; conditions: for efficacy against MYCN (loss of MYCN protein), in words: 24 hrs, 1 μM of compound (FIG. 3)
Protocol: (§1) Neuroblastoma tumor cell lines were obtained from the University of California San Francisco Cell Culture Facility (Kelly, SK-N-BE2, and SH-EP). SMS-KCN, SHEP MYCN^wt and MYCN^T58A/S62A cells were obtained. All cells were grown in RPMI with 10% FBS. Neuroblastoma cells were harvested and lysed with Cell Signaling Lysis buffer+1% SDS, sonicated and supernatants boiled in LDS sample buffer (Invitrogen). Western blots were performed as described previously (Chanthery et al., 2012), with primary antibodies to MYCN (ab24193, Abcam), Histone H3, P-Histone H3 (S10), Aurora A (Cell signaling), and GAPDH (Millipore). Western blot quantitation performed with ImageJ software.

[2] = biological target: T1, Aurora A (Homo sapiens, UniProt O14965, T287D); assay: In vitro kinase assay for Aurora A (32P ATP); format: biochemical
T1 construct: Aurora A (residues 123-390, T287D) was cloned into a pET28a plasmid; hexahistidine (PreScission Protease-cleavable) (cleaved yes); made in house; host or cells: E. coli BL-21(DE3)
T1 sequence (O14965 123-390 T287D): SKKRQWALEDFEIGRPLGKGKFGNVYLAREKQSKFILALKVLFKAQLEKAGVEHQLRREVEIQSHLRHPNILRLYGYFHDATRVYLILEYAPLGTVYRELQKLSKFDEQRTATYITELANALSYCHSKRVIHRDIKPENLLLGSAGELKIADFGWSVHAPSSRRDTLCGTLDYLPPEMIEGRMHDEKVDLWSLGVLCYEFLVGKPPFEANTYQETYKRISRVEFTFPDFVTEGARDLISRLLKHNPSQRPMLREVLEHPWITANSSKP
Protocol: Kinase assays for Aurora A were performed in 10 mM HEPES pH 7.5, 10 mM MgCl2, 0.01% Triton, 4% v/v DMSO, 5 nM kinase, and either 4 μM histone H3 or 30 μM synthetic peptide [sequence] (Elim Biopharmaceuticals, Inc). Drug concentration ranged from 2000-5 nM. Reactions were preincubated with inhibitor for ten minutes before initiation by addition of 100 μM nonradioactive ATP supplemented with ^32P ATP (1 mCi in 200 μL, Perkin-Elmer, 0.8 ρCi per reaction). Reactions were quenched at 10 min by spotting 3 μL quantity onto P81 phosphocellulose (Whatman), which were washed 5×5′ in 0.1% phosphoric acid and dried. Radioactivity was measured by phosphorimaging and recorded on a Typhoon fluorescence imager (Molecular Dynamics).

[3] = tested on: p-Histone H3; assay: p-Histone H3 by immunoblot in compound-treated cells (structure-activity); format: cell-based
Protocol: as §1

[4] = tested on: MYCN; assay: MYCN levels in JM134- vs NHC532-treated cells (FIG. 10); format: cell-based
[5] = tested on: tumor-derived cell lines; assay: Screen of panel of tumor-derived, genetically characterized cell lines; format: cell-based; conditions: Wilcoxon Rank Sum test
[6] = tested on: MYCN amplified neuroblastoma cells; assay: Cell cycle by flow cytometry; format: cell-based
Protocol: (§2) Neuroblastoma cells were treated for the indicated time, trypsinized, washed, stained with Dylight 800 at 0.3 μg/mL (Pierce, 46421), fixed with 1.5% PFA, and permeabilized with 100% methanol. Cells were then stained with antibodies against p-MPM2 (Millipore, 16-155), p-pan-Aurora (Cell Signaling, 2914), MYCN (Thermo, PA5-17403), rabbit IgG (Invitrogen, A10542), or mouse IgG (BioLegend, 405307). Cells were stained with DAPI at 0.3 μg/mL (Invitrogen, D21490) and analyzed on the BD LSR II flow cytometer. For cell cycle analysis, cells were stimulated with EdU for 2 hours prior to harvest, then probed using the Click-iT EdU Flow Cytometry Assay Kit (Invitrogen, C10424). Cells were stained with propidium iodide (BD, 556547) and analyzed on the BD FACSCalibur flow cytometer. Data was gated using Cytobank. For viability studies, neuroblastoma cells were plated in 96-well plates at a density of 1,000 cells/well for SHEP or 4,000 cells/well for Kelly or SK—N-BE2 cells, then incubated with indicated concentrations of drug for 72 hours at 37° C. Plates were frozen at −80° C. to induce cell lysis. CyQUANT reagent mixture (Invitrogen, C7026) was added to thawed plates, then fluorescence was measured. Alternatively, resazurin (Sigma-Aldrich, R7017) was added directly to wells following drug treatment then incubated for 4 hours at 37° C. prior to measuring fluorescence. Data was analyzed using GraphPad Prism software.

[7] = tested on: phospho-pan-Aurora; assay: Phospho-pan-Aurora by flow cytometry; format: cell-based; conditions: 1 μM, 6 hrs (FIG. 6C)
Protocol: as §2

[8] = tested on: MYCN; assay: Dose response immunoblot for MYCN in MYCN-amplified neuroblastoma cell lines (SK-N-BE(2), SMS-KCN, Kelly); format: cell-based; conditions: multiple cell lines, 24 hrs (FIGS. 1D and 7)
Protocol: as §1

[9] = biological target: T2, Aurora A protein (Homo sapiens, UniProt O14965); assay: Dose response immunoblot for Aurora A protein in MYCN-amplified neuroblastoma cell lines; format: cell-based; conditions: across cell lines (FIGS. 1D and 7)
T2 construct: endogenous in cells; host or cells: SK-N-BE(2), SMS-KCN, Kelly neuroblastoma cells
Protocol: Neuroblastoma tumor cell lines were obtained from the University of California San Francisco Cell Culture Facility (Kelly, SK-N-BE2, and SH-EP). SMS-KCN, SHEP MYCN^wt and MYCN^T58A/S62A cells were obtained. All cells were grown in RPMI with 10% FBS. Neuroblastoma cells were harvested and lysed with Cell Signaling Lysis buffer+1% SDS, sonicated and supernatants boiled in LDS sample buffer (Invitrogen). […] Western blot quantitation performed with ImageJ software.

[10] = tested on: phospho-histone H3; assay: Screen of Kelly MYCN-amplified cells, western blot for phospho-histone H3; format: cell-based; conditions: 1 μM, 24 hrs
Protocol: as §1
(§3) To test whether this panel of 32 putative conformation-disrupting Aurora A inhibitors would destabilize MYCN, initially Kelly MYCN-amplified neuroblastoma cells were treated with candidate inhibitors and MYCN protein was measured by western blot. Phosphorylation of Histone H3, a known substrate for Aurora A and B and a marker for mitosis, was also assessed. FIGS. 1B and 5 show decreased levels of both MYCN protein and p-Histone H3 in response to several members of the screening panel (quantitated in FIG. 1).

[11] = delivered at the same dose (20 mg/kg); cited from earlier work
[12] = tested on: P-Histone H3 (S10); assay: Dose response immunoblot for phosphorylation of Histone H3 (S10) in MYCN-amplified neuroblastoma cell lines; format: cell-based; conditions: FIGS. 1D and 7
Protocol: as §1

[13] = tested on: Kelly MYCN-amplified neuroblastoma cells; assay: Viability at 72 hrs, CyQUANT assay; format: cell-based; conditions: FIG. 1F, read-out: cellular EC50 at 72 hrs
Protocol: as §2, with “Plates were frozen at −80° C. to induce cell lysis.” left out

[14] = biological target: T3, MYCN-Aurora A complex (Homo sapiens, UniProt O14965); assay: Pulldown of MYCN and immunoblot for Aurora A; format: cell-based; conditions: MYCN-amplified IMR32 cells, 4 hrs MG-132, 2 hrs drug, increasing concentrations
T3 construct: Representative immunoprecipitation of MYCN and immunoblots from MYCN-amplified IMR32 cells; endogenous in cells

[15] = tested on: MYCN; assay: Screen of Kelly MYCN-amplified cells, western blot for MYCN; format: cell-based; conditions: 1 μM, 24 hrs
Protocol: as §1, §3

[16] = tested on: MYCN; assay: MYCN protein by immunoblot in SHEP cells expressing MYCN; format: cell-based; conditions: SHEP cells expressing MYCNWT, 24 hrs, increasing concentrations (FIG. 12C)
Protocol: as §1
MYCN is believed to be sequentially phosphorylated at S62/T58 before it is targeted for degradation by ubiquitination, and only phosphorylated, ubiquitinated MYCN is protected from degradation by Aurora A (Gustafson and Weiss, 2010; Otto et al., 2009).

T3 sequence (O14965 whole entry, one chain of several): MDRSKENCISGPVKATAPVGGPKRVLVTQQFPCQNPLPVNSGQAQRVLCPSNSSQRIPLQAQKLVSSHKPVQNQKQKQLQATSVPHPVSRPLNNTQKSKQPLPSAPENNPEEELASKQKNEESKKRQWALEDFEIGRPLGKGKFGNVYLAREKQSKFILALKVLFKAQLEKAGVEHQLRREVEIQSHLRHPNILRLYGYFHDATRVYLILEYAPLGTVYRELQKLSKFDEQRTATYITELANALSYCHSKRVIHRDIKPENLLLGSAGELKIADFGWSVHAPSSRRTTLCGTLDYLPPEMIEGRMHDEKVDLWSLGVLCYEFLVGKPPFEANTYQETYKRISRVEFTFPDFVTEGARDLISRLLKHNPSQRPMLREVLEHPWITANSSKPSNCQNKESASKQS
T2 sequence (O14965 whole entry): as the sequence (O14965 whole entry, one chain of several) above

## Cc1cc(Nc2cc(C3CCCC3)[nH]n2)nc(Nc2ccc(NC(=O)Nc3cccc(C(F)(F)F)c3)cc2)n1 [CD15, 1-(4-((4-((5-cyclopentyl-1H-pyrazol-3-yl)amino)-6-methylpyrimidin-2-yl)amino)phenyl)-3-(3-(trifluoromethyl)phenyl)urea]
[1]
  efficacy against MYCN (loss of MYCN protein), in words: maintained both cell-free potency and efficacy against MYCN
[2]
  potency against Aurora A (biochemical, cell-free), in words: maintained both cell-free potency and efficacy against MYCN

## Cc1cc(Nc2cc(C3CCCCC3)[nH]n2)nc(Nc2ccc(NC(=O)Nc3cccc(C(F)(F)F)c3)cc2)n1 [CD22, 3-[4-({4-[(5-cyclohexyl-1H-pyrazol-3-yl)amino]-6-methylpyrimidin-2-yl}amino)phenyl]-1-[3-(trifluoromethyl)phenyl]urea]
[1]
  efficacy against MYCN (loss of MYCN protein), in words: lost both potency against Aurora A and efficacy against MYCN
[2]
  potency against Aurora A (biochemical, cell-free), in words: lost both potency against Aurora A and efficacy against MYCN

## Cc1cc(Nc2cc(C3CCCCC3)[nH]n2)nc(Nc2ccc(NC(=O)Nc3ccccc3)cc2)n1 [CD24, 3-[4-({4-[(5-cyclohexyl-1H-pyrazol-3-yl)amino]-6-methylpyrimidin-2-yl}amino)phenyl]-1-phenylurea]
[1]
  efficacy against MYCN (loss of MYCN protein), in words: lost both potency against Aurora A and efficacy against MYCN
[2]
  potency against Aurora A (biochemical, cell-free), in words: lost both potency against Aurora A and efficacy against MYCN

## O=C(Nc1ccccc1)Nc1ccc(Nc2nccc(Nc3cc(C4CCCC4)[nH]n3)n2)cc1 [CD25, 3-[4-({4-[(5-cyclopentyl-1H-pyrazol-3-yl)amino]pyrimidin-2-yl}amino)phenyl]-1-phenylurea]
[1]
  efficacy against MYCN (loss of MYCN protein), in words: less effective than CD532 in driving MYCN loss
[2]
  potency against Aurora A (biochemical, cell-free), in words: retained potency against Aurora Kinase A activity
[3]; SK-N-BE(2) cells, 24 hrs, 1 μM (FIG. 3D)
  Histone H3 phosphorylation: loss of Histone H3 phosphorylation

## O=C(Nc1ccc(Nc2nccc(Nc3cc(-c4ccco4)[nH]n3)n2)cc1)Nc1cccc(C(F)(F)F)c1 [JM134, 1-(4-((4-((5-(furan-2-yl)-1H-pyrazol-3-yl)amino)pyrimidin-2-yl)amino)phenyl)-3-(3-(trifluoromethyl)phenyl)urea]
[2]
  increase in biochemical IC50 against Aurora A compared to NHC532 (CD532): 5 fold
  potency against Aurora A (biochemical, cell-free), in words: decreased binding affinity to Aurora A
[4]
  MYCN levels compared to NHC532 (CD532): still decreases MYCN levels (though not as completely)
[3]; FIG. 10
  level of p-Histone H3 compared to NHC532-treated cells: higher level of p-Histone H3

## Cc1sc2c(c1C)C(c1ccc(Cl)cc1)=N[C@@H](CC(=O)OC(C)(C)C)c1nnc(C)n1-2 [JQ1, reference compound]
[5]
  susceptibility of MYCN amplified vs non-amplified cell lines: significantly more susceptible to JQ1 than non-amplified lines
[6]; 24 hrs of treatment
  cell cycle effect: blockade of S-phase entry and accumulation of cells in G0/G1

## COc1cc(Nc2ncc3c(n2)-c2ccc(Cl)cc2C(c2c(F)cccc2OC)=NC3)ccc1C(=O)O [MLN8237]
[7]
  phospho-pan-Aurora: loss of phospho-pan-Aurora
[8]
  MYCN protein, dose response: little or no response to high concentrations; also recorded: little loss of MYCN protein even at doses 100 to 1000 times greater than their IC50 values for Aurora A
[9]
  Aurora A protein level: upregulated or had little effect on Aurora A protein
[10]
  p-Histone H3 level: blocked Histone H3 phosphorylation at 1 μM
[11]
  AUC0-24: 78.4 µM·h
[1]; 1 μM, time course (FIG. 12A)
  time dependence of MYCN protein loss: similarly rapid, but much more modest decrease in levels of MYCN protein that does not change over time
[6]; 4 or 6 hrs of treatment
  cell cycle effect: G2/M arrest
[12]
  phosphorylation of Histone H3 at S10, dose response: initial increase in S10 phosphorylation at lower concentrations, followed by a sharp drop at higher concentrations
[13]
  EC50: 33.9 nM
[14]
  MYCN-Aurora A interaction: partial loss of interaction; also recorded: only modestly disrupted this interaction
[15]
  MYCN protein level: much more modest effects on levels of MYCN protein

## Cc1cc(Nc2cc(N3CCN(C)CC3)nc(Sc3ccc(NC(=O)C4CC4)cc3)n2)n[nH]1 [VX-680]
[7]
  phospho-pan-Aurora: loss of phospho-pan-Aurora
[16]
  wild-type MYCN protein: little effect on MYCN protein levels
[8]
  MYCN protein, dose response: little loss of MYCN protein even at doses 100 to 1000 times greater than their IC50 values for Aurora A
[10]
  p-Histone H3 level: blocked Histone H3 phosphorylation at 1 μM
[6]; 4 or 6 hrs of treatment
  cell cycle effect: G2/M arrest
[12]
  phosphorylation of Histone H3 at S10, dose response: abrogates phosphorylation of Histone H3 at S10
[15]
  MYCN protein level: much more modest effects on levels of MYCN protein
